Tests used:
Format in all cases: ADME, organism-based
[1] = species on record: Mus musculus; experiment: Skin irritant activity in SIM mouse ear assessed as irritation unit per ear after 24 hrs; settings: in vivo
[2] = species on record: Mus musculus; experiment: Skin irritant activity in NMRI mouse ear assessed as irritant dose 50 per ear after 24 hrs; settings: in vivo, topical_or_ocular
[3] = species on record: Mus musculus; experiment: Skin irritant activity in NMRI mouse ear assessed as irritancy 50 after 24 hrs; settings: in vivo

`C/C=C(\C)C(=O)O[C@@H]1[C@@H]2[C@H]([C@H](OC(=O)C(C)CC)[C@H](OC(C)=O)/C(C)=C/[C@@]34O[C@@]3(C[C@H](C)[C@@H]4OC(C)=O)C(=O)[C@@H]1C)C2(C)C` (some centres not stated) gave an Activity [1] greater than 1000 µg.

With `C/C=C(\C)C(=O)O[C@@]12C[C@@H](C)[C@@]3(O)[C@@H](C=C(COC(C)=O)C[C@]4(O)C(=O)C(C)=C[C@@H]34)[C@@H]1C2(C)C` the Activity [2] was 1.2 nmol and the Activity [3] was 0.8 nmol⁻¹.

For `C/C=C(/C)C(=O)O[C@@]12C[C@@H](C)[C@@]3(O)[C@@H](C=C(CO)C[C@]4(O)C(=O)C(C)=C[C@@H]34)[C@@H]1[C@@]2(C)COC(=O)C(C)C`, the Activity [2] was 0.25 nmol and the Activity [3] was 4 nmol⁻¹.

For `C/C=C(\C)C(=O)O[C@@]12C[C@@H](C)[C@@]3(O)[C@@H](C=C(CO)C[C@]4(O)C(=O)C(C)=C[C@@H]34)[C@@H]1C2(C)C`, the Activity [2] was 0.28 nmol and the Activity [3] was 3.6 nmol⁻¹.

`CC(=O)OCC1=C[C@H]2[C@@H]3C(C)(C)[C@]3(OC(=O)C(C)C)C[C@@H](C)[C@]2(O)[C@@H]2C=C(C)C(=O)[C@@]2(O)C1` showed an Activity [2] of 1.5 nmol and an Activity [3] of 0.7 nmol⁻¹.

`C/C=C(/C)C(=O)O[C@@]12C[C@@H](C)[C@@]3(O)[C@@H](C=C(COC(C)=O)C[C@]4(O)C(=O)C(C)=C[C@@H]34)[C@@H]1[C@@]2(C)COC(=O)C(C)CC` (some centres not stated) gave an Activity [2] of 2.4 nmol and an Activity [3] of 0.4 nmol⁻¹.

With `C/C=C(\C)C(=O)O[C@@H]1[C@@H]2[C@H]([C@H](OC(=O)/C(C)=C/C)[C@H](OC(C)=O)/C(C)=C/[C@@]34O[C@@]3(C[C@H](C)[C@@H]4OC(C)=O)C(=O)[C@@H]1C)C2(C)C` the Activity [1] was greater than 1000 µg.

In the case of `C/C=C(\C)C(=O)O[C@H]1[C@H]2[C@@H]([C@@H](O)[C@@H](C)C(=O)[C@@]34C[C@H](C)[C@H](OC(C)=O)[C@]3(/C=C(\C)[C@H]1OC(=O)C(C)CC)O4)C2(C)C` (some centres not stated), the Activity [1] is reported as greater than 1000 µg.

`C/C=C(/C)C(=O)O[C@@]12C[C@@H](C)[C@@]3(O)[C@@H](C=C(COC(C)=O)C[C@]4(O)C(=O)C(C)=C[C@@H]34)[C@@H]1[C@@]2(C)COC(=O)C(C)C` gave an Activity [2] of 0.91 nmol and an Activity [3] of 1.1 nmol⁻¹.

Compound `C/C=C(\C)C(=O)O[C@@H]1[C@@H]2[C@H]([C@H](OC(=O)/C(C)=C/C)[C@H](OC(C)=O)/C(C)=C/[C@@]34O[C@@]3(C[C@H](C)[C@@H]4O)C(=O)[C@@H]1C)C2(C)C` has an Activity [1] greater than 1000 µg.

`C/C=C(\C)C(=O)O[C@@H]1[C@@H]2[C@H]([C@H](OC(C)=O)[C@H](OC(C)=O)/C(C)=C/[C@@]34O[C@@]3(C[C@H](C)[C@@H]4OC(C)=O)C(=O)[C@@H]1C)C2(C)C` showed an Activity [1] greater than 1000 µg.

`CCC(C)C(=O)O[C@@]12C[C@@H](C)[C@@]3(O)[C@@H](C=C(CO)C[C@]4(O)C(=O)C(C)=C[C@@H]34)[C@@H]1C2(C)C` (some centres not stated) showed an Activity [2] of 0.83 nmol and an Activity [3] of 1.2 nmol⁻¹.

`CCC(C)C(=O)O[C@@]12C[C@@H](C)[C@@]3(O)[C@@H](C=C(COC(C)=O)C[C@]4(O)C(=O)C(C)=C[C@@H]34)[C@@H]1C2(C)C` (some centres not stated) was tested, and the Activity [2] was 1.5 nmol and the Activity [3] was 0.7 nmol⁻¹.

With `CC1=C[C@H]2[C@@]3(O)[C@H](C)C[C@]4(OC(=O)C(C)C)[C@H]([C@@H]3C=C(CO)C[C@]2(O)C1=O)C4(C)C` the Activity [2] was 0.53 nmol and the Activity [3] was 1.9 nmol⁻¹.

For `CCCCCCCCCCCCCC(=O)O[C@@H]1[C@@H](C)[C@@]2(O)[C@@H](C=C(CO)C[C@]3(O)C(=O)C(C)=C[C@@H]23)[C@@H]2C(C)(C)[C@]12OC(C)=O` [PHORBOL MYRISTATE ACETATE], the Activity [1] was 0.05 µg, the Activity [2] was 0.016 nmol and the Activity [3] was 63 nmol⁻¹.

`CC(=O)O[C@@]12C[C@@H](C)[C@@]3(O)[C@@H](C=C(CO)C[C@]4(O)C(=O)C(C)=C[C@@H]34)[C@@H]1C2(C)C` [PROSTRATIN] showed an Activity [1] greater than 7 nmol.

— ChEMBL document CHEMBL1151117, “Irritant principles of the spurge family (Euphorbiaceae). XIII. Oligocyclic and macrocyclic diterpene esters from latices of some Euphorbia species utilized as source plants of honey” (J Nat Prod, 1988)
